The target of one data set is T1, mGluR 1 (Rattus norvegicus, UniProt P23385).
T1 construct: Each rat (Wistar, male, 9 to 12 weeks of age) was decapitated to excise the cerebellum; from tissue; host or cells: rat (Wistar) cerebellum, P2 membrane fraction
As to the kind of experiment: mGluR 1 binding test with tritium-labeled ligand on rat cerebellum P2 membrane fraction. The note with it: about 20 nM [3H]-6-amino-N-cyclohexyl-N,3-dimethylthiazolo[3,2-a]benzimidazole-2-carboxamide. The procedure: (Test Methods) 1. The mGluR 1 Binding Activity
Effect of the compounds of the invention upon mGluR 1 was verified in accordance with the method described in the Patent Reference 3.
(Preparation of Rat Cerebellum P2 Membrane Fraction)
Each rat (Wistar, male, 9 to 12 weeks of age) was decapitated to excise the cerebellum. After weight measurement, this was homogenized in 7 to 10 volumes of 0.32 M sucrose solution. After 15 minutes of centrifugation at 900×g, the supernatant was preserved in a container (in ice). The precipitate was again homogenized in 0.32 M sucrose solution of the same volume of the first time and centrifuged at 900×g for 15 minutes. The supernatant obtained this time was combined with the previously obtained supernatant and centrifuged at 15,000×g for 20 minutes. The precipitate was homogenized in 5 mM Tris-HCl, pH 7.4, and centrifuged at 15,000×g for 15 minutes. This step was repeated again. The precipitate was homogenized in 50 mM Tris-HCl, pH 7.4, and centrifuged at 15,000×g for 15 minutes. The precipitate was homogenized in an appropriate amount of 50 mM Tris-HCl, pH 7.4, subdivided into small portions and then preserved at −80° C.
As the assay buffer, 50 mM Tris-HCl, 2.5 mM CaCl2, pH 7.4, was used. [^3H]-(6-Amino-N-cyclohexyl-N,3-dimethylthiazolo[3,2-a]benzimidazole-2-carboxamide) (specific activity; 81 Ci/mmol; Amersham), a test compound and about 0.1 mg of the rat cerebellum P2 membrane fraction were suspended to a total volume of 100 μl in a 96 well microplate and then incubated at room temperature (about 25° C.) for 45 minutes. Completion of the incubation was carried out by a filtration method using Whatman GF/B filter. Quantity of the radioactivity was measured using a liquid scintillation counter. About 20 nM of [^3H]-6-amino-N-cyclohexyl-N,3-dimethylthiazolo[3,2-a]benzimidazole-2-carboxamide was used in the competitive test, and the specific binding was defined as a portion of the total binding, which was replaced by 10 μM of 6-{[(2-methoxyethyl)amino]methyl}-N-neopentylthiazolo[3,2-a]benzimidazole-2-carboxamide (Patent Reference 3, the compound described in Example 75). Evaluation of the test compound was carried out by calculating the ratio of binding inhibition upon the specific binding.
Determination of protein was carried out using BIO-RAD DC protein assay (BIO-RAD). Bovine serum albumin was used as the standard substance.

A further data set deals with STZ-loaded mice. As to the kind of experiment: Streptozotocin (STZ)-induced diabetes model, tail pinch test. It is filed as in vivo, ICR mice. The note with it: at 10 mg/kg. The protocol: • Thomsen C., Mulvihill E. R., Haldeman B., Pickering D. S., Hampson D. R. and Suzdak P. D., A pharmacological characterization of the mGluR 1 alpha subtype of the metabotropic glutamate receptor expressed in a cloned baby hamster kidney cell line., Brain Res., Aug. 13, 1993, 619(1-2), 22-8 2. Inhibitory Effect Upon Neuropathic Pain 1) Streptozotocin (to be Referred to as STZ Hereinafter)—Induced Diabetes Model
The test was carried out by modifying a part of a report (Pharmacol. Biochem. Behav., 39, 541-544, 1991). At a dose of 200 mg/kg, STZ was intraperitoneally administered to each of ICR mice of 4 weeks of age. A preliminary test of a tail pinch test was carried out in the afternoon of the day 2 weeks after the administration, and only animals showing a reaction latency of 3 seconds or less were submitted to the next day's test. Each compound was loaded by 10 mg/kg of oral administration, and the tail pinch test was carried out after 30 minutes of the administration to calculate a difference from the value of latency measured in the preliminary test.
In this connection, normal mice unloaded with STZ show a reaction latency of 6 to 7 seconds in average by this test. STZ-loaded mice having a reaction latency of 3 seconds or less in which distinct reduction in the pain threshold was observed were used in the test of this time. […]

Data set [1] concerns Salmonella typhimurium TA 98 and TA 100. Nature of the data set: Reverse mutation test using a bacterium (genetic toxicity). The format is cell-based. The note with it: pre-incubation method, presence and absence of metabolic activation system (S9Mix). The protocol:
Gene mutation inducing ability of the compounds of the invention was verified by a reverse mutation test which uses a bacterium.
The test was carried out in accordance with the genetic toxicity test guideline of drugs (Iyakushin No. 1604, Nov. 1, 1999) by a pre-incubation method in the presence and absence of a metabolic activation system. However, Salmonella typhimurium TA 98 and TA 100 alone were used as the test strains.
(Reverse Mutation Test Using a Bacterium)
A 0.5 ml portion of 0.1 M sodium phosphate buffer (pH 7.4), 0.1 ml of an overnight-cultured test strain suspension and 0.1 ml of a solution of a substance to be tested were put into a test tube and shaken (60 reciprocation/min) at 37° C. for 20 minutes, and then 2 ml of soft agar kept at about 45° C. was added thereto and the mixture was spread on a minimal glucose agar plate medium (plate) and cultured at 37° C. for about 48 hours. In the case of the metabolic activation test, the same procedure was carried out by adding the same volume of S9Mix instead of the 0.1 M sodium phosphate buffer. […]
The number of colonies formed on the plate after 48 hours of culturing was counted. […]

Data set [2] concerns L5/L6 spinal nerves-ligated rat. As to the kind of experiment: L5/L6 spinal nerves-ligated rat, von Frey hair (VFH) test. It is filed as in vivo, SD rats. As to conditions: 30 mg/kg oral administration; VFH test 30 minutes after administration. The protocol:
2) L5/L6 Spinal Nerves-Ligated Rat
The test was carried out by modifying a part of a report (PAIN, 50, 355-363, 1992). Using SD rats, left side hip nerves (L5 and L6) were ligated with a silk thread under pentobarbital anesthesia. The following test was carried out during a period of from on the 7th day to the 14th day after the operation.
Each compound was orally administered, and the von Frey hair (VFH) test was carried out 30 minutes thereafter to calculate the pain threshold value against mechanical nocuous stimulus. The measurement was carried out on the left and right hind legs.
The significant difference test was carried out using the Dunnett method on respective left and right legs between the control group and compound-administered group.

Results on 15 compounds are retold here after patent US7250429B2, “Aminomethyl-substituted thiazolobenzimidazole compounds” (Astellas Pharma Inc., priority 2002, dated 2007).

Structures can show the parent of a compound that is named as a salt.

Broadly, the IC50 is the concentration that gives 50% inhibition. Higher therefore signals weaker potency in that assay.

T1 sequence (P23385 19-1199): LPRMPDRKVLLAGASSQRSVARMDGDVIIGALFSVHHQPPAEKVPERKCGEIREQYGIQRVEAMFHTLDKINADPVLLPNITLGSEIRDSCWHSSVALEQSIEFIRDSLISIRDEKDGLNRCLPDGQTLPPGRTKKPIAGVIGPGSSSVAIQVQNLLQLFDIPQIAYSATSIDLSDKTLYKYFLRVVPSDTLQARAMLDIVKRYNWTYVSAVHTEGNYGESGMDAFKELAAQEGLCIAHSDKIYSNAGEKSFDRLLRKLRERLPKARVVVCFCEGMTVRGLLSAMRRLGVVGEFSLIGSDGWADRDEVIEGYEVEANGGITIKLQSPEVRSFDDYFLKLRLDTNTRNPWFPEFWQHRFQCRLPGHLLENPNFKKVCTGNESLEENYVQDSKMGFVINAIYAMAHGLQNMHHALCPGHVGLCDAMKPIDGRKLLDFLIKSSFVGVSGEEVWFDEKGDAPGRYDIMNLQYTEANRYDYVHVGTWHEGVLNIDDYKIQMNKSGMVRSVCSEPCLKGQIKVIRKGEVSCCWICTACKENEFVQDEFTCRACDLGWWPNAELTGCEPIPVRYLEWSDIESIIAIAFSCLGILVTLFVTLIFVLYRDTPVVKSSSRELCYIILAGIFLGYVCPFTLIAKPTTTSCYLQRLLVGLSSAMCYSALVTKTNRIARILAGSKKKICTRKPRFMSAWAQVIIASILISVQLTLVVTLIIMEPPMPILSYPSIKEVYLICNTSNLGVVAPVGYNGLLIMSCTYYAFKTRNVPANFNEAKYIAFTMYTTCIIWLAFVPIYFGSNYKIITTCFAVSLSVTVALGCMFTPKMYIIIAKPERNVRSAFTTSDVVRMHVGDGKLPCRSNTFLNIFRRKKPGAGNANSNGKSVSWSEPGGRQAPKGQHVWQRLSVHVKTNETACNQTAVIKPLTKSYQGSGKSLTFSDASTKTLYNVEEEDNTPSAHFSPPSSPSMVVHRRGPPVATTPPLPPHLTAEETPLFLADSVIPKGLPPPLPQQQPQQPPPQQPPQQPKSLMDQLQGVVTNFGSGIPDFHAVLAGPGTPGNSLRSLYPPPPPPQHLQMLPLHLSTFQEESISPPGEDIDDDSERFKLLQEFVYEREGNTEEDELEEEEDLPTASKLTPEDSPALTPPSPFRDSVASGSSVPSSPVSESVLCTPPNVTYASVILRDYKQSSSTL

Compound `CN(CC(C)(C)C)C(=O)c1cn2c(nc3ccc(CNC4COC4)cc32)s1` [Example 6, N-Methyl-N-neopentyl-6-[(oxetan-3-ylamino)methyl]thiazolo[3,2-a]benzimidazole-2-carboxamide 1.5 Fumarate] showed an IC50 at mGluR 1 of 2 nM. `CN(CC(C)(C)C)C(=O)c1cn2c(nc3ccc(CNCC4(C)COC4)cc32)s1` [Example 7, N-Methyl-6-({[(3-methyloxetan-3-yl)methyl]amino}methyl)-N-neopentylthiazolo[3,2-a]benzimidazole-2-carboxamide] had an IC50 on mGluR 1 of 9 nM. With `CN(CC(C)(C)C)C(=O)c1cn2c(nc3ccc(CNC[C@@H]4CCCO4)cc32)s1` [Example 11, N-Methyl-N-neopentyl-6-({[((S)-tetrahydro-2-furfuryl)methyl]amino}methyl)thiazolo[3,2-a]benzimidazole-2-carboxamide Dihydrochloride], the IC50 at mGluR 1 came out at 3 nM. In the case of `CN(CC(C)(C)C)C(=O)c1cn2c(nc3ccc(CNCC4OCCO4)cc32)s1` [Example 12, 6-{[(1,3-Dioxolan-2-ylmethyl)amino]methyl}-N-methyl-N-neopentylthiazolo[3,2-a]benzimidazole-2-carboxamide dihydrochloride], the oral activity entry with STZ-loaded mice is “effective”. For the same compound, in data set [1], the “gene mutation inducing ability” value is “negative”. The compound `CN(CC(C)(C)C)C(=O)c1cn2c(nc3ccc(CNC4CCOCC4)cc32)s1` [Example 15, N-Methyl-N-neopentyl-6-{[(tetrahydro-2H-pyran-4-yl)amino]methyl}thiazolo[3,2-a]benzimidazole-2-carboxamide dihydrochloride] registered an IC50 at mGluR 1 of 26 nM. In data set [2], the “efficacy upon the threshold value reduction in the operated side” value is “showed their efficacy”.

Take `CN(CC(C)(C)C)C(=O)c1cn2c(nc3ccc(CNCC4CCOCC4)cc32)s1` [Example 17, N-Methyl-N-neopentyl-6-({[(tetrahydro-2H-pyran-4-yl)methyl]amino}methyl)thiazolo[3,2-a]benzimidazole-2-carboxamide dihydrochloride]: the IC50 at mGluR 1 worked out at 6 nM. Also, in data set [2], the “efficacy upon the threshold value reduction in the operated side” value was “showed their efficacy”. With `CC(C)(C)CNC(=O)c1cn2c(nc3ccc(CN[C@@H]4CCOC4)cc32)s1` [Example 23, (R)-N-Neopentyl-6-{[(tetrahydro-3-furyl)amino]methyl}thiazolo[3,2-a]benzimidazole-2-carboxamide dihydrochloride], on mGluR 1, the IC50 was 30 nM. With `CC(C)(C)CNC(=O)c1cn2c(nc3ccc(CNC[C@H]4CCCO4)cc32)s1` [Example 24, (R)-N-Neopentyl-6-({[(tetrahydro-2-furyl)methyl]amino}methyl)thiazolo[3,2-a]benzimidazole-2-carboxamide dihydrochloride], at mGluR 1, the IC50 amounted to 11 nM.

The compound `CC(C)(C)CNC(=O)c1cn2c(nc3ccc(CNCC4OCCO4)cc32)s1` [Example 26, 6-{[(1,3-Dioxolan-2-ylmethyl)amino]methyl}-N-neopentylthiazolo[3,2-a]benzimidazole-2-carboxamide dihydrochloride] yielded an IC50 on mGluR 1 of 8 nM.

`CC(C)(C)CNC(=O)c1cn2c(nc3ccc(CNCC4CCOCC4)cc32)s1` [Example 28, N-Neopentyl-6-({[(tetrahydro-2H-pyran-4-yl)methyl]amino}methyl)thiazolo[3,2-a]benzimidazole-2-carboxamide dihydrochloride]: the IC50 on mGluR 1 was 48 nM. Moreover, the “efficacy upon the threshold value reduction in the operated side” value in data set [2] was “showed their efficacy”. On mGluR 1, `CN(CC1OCCO1)C(=O)c1cn2c(nc3ccc(CNC4COC4)cc32)s1` [Example 31, N-(1,3-Dioxolan-2-ylmethyl)-N-methyl-6-[(oxetan-3-ylamino)methyl]thiazolo[3,2-a]benzimidazole-2-carboxamide] showed an IC50 of 43 nM. Turning to `CN(CC1OCCO1)C(=O)c1cn2c(nc3ccc(CN[C@@H]4CCOC4)cc32)s1` [Example 34, N-(1,3-Dioxolan-2-ylmethyl)-N-methyl-6-{[(R)-(tetrahydro-3-furyl)amino]methyl}thiazolo[3,2-a]benzimidazole-2-carboxamide dihydrochloride], at mGluR 1, the IC50 worked out at 37 nM. In the case of `CN(CC1OCCO1)C(=O)c1cn2c(nc3ccc(CNC[C@H]4CCCO4)cc32)s1` [Example 35, N-(1,3-Dioxolan-2-ylmethyl)-N-methyl-6-({[((R)-tetrahydro-2-furyl)methyl]amino}methyl)thiazolo[3,2-a]benzimidazole-2-carboxamide dihydrochloride], the IC50 at mGluR 1 turned out to be 12 nM. On mGluR 1, `CN(CC1OCCO1)C(=O)c1cn2c(nc3ccc(CNCC4OCCO4)cc32)s1` [Example 37, N-(1,3-Dioxolan-2-ylmethyl)-6-{[(1,3-dioxolan-2-ylmethyl)amino]methyl}-N-methylthiazolo[3,2-a]benzimidazole-2-carboxamide dihydrochloride] had an IC50 of 8 nM. On to `CN(CC1OCCO1)C(=O)c1cn2c(nc3ccc(CNCC4CCOCC4)cc32)s1` [Example 39, N-(1,3-Dioxolan-2-ylmethyl)-N-methyl-6-({[(tetrahydro-2H-pyran-4-yl)methyl]amino}methyl)thiazolo[3,2-a]benzimidazole-2-carboxamide dihydrochloride], for which the 50% inhibitory concentration (IC50) on mGluR 1 was found to be 26 nM.
